# Test results from publication PMC5008855 (Organic & biomolecular chemistry, 2016).
# Target: T1, human COX-2 enzyme (cyclooxygenase II) (Homo sapiens, UniProt P35354)
# T1 sequence (P35354 18-604): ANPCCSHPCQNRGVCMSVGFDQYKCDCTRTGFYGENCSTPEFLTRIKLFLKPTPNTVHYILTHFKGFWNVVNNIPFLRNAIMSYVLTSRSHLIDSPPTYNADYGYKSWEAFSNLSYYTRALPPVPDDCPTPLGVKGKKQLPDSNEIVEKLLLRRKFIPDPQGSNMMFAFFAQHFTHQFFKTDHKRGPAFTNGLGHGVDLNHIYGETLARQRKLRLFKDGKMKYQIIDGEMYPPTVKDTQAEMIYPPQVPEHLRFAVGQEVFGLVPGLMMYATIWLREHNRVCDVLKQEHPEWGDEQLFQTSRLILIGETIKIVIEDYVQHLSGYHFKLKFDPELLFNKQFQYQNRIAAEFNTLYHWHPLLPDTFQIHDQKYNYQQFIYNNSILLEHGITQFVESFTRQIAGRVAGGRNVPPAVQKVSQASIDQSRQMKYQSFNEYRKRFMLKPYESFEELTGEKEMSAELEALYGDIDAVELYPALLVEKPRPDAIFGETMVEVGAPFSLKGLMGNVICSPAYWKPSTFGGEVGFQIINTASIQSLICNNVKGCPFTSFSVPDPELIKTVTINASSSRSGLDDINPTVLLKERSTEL
# Experiment: human COX-2 activity inhibition assay
# Type: biochemical
substance,measurement,value
homoneoprofen [compound 2],IC50,2000 nM
